Assay results: US20090196864A1 (priority 2005, published 2009)
Read-outs that look alike come from different tables or passages of the source. Where a SMILES comes first, the peptide text is derived from it. The star is where a group is joined. Cbz = O=C(OCc1ccccc1)*; CH2F = FC*

Assays:
S5 cells [1] = assay type: cell-based, Trichoplusia ni
S5 cells [2] = details: Zhang et al. 2005, cited from earlier work; for Effect of osmotic protectant on blebbing and swelling of toxin-exposed cells: 30 mM protectant
S5 cells [3] = assay type: cell-based, Trichoplusia ni; remark: listed apart in the source
S5 cells [4] = details: Zhang et al. 2005, cited from earlier work; for Effect of chelator on toxin-induced death: S5 cells pre-treated with chelator, then Cry1Ab toxin
H5 cells [5] = assay type: cell-based, Trichoplusia ni
H5 cells [6] = details: cultured H5 cells without receptor; Zhang et al. 2005; cited from earlier work
S5 cells [7] = details: either stage of cytotoxicity; shown previously; cited from earlier work
S5 cells [8] = assay type: cell-based, Trichoplusia ni; remark: listed apart in the source

## CO/C1=C\C(C)=C\[C@@H](C)[C@@H](O)[C@@H](C)C/C(C)=C/C=C/[C@H](OC)[C@@H]([C@@H](C)[C@@H](O)[C@H](C)[C@@]2(O)C[C@@H](O)[C@H](C)[C@@H](C(C)C)O2)OC1=O [Bafilomycin A]
S5 cells [1]
  Cell death: + (key: + = 80 ± 5% cell death; − = no cell death)

## O=C(Nc1cc(C(=O)Nc2ccc(S(=O)(=O)O)cc2S(=O)(=O)O)cc(C(=O)Nc2ccc(S(=O)(=O)O)cc2S(=O)(=O)O)c1)Nc1cc(C(=O)Nc2ccc(S(=O)(=O)O)cc2S(=O)(=O)O)cc(C(=O)Nc2ccc(S(=O)(=O)O)cc2S(=O)(=O)O)c1 [NF449]
S5 cells [1]
  Decrease of relative toxicity (cell death) mediated by Cry1Ab: 50%

## Cc1ccc(S(=O)(=O)N[C@@H](Cc2ccccc2)C(=O)CCl)cc1 [TPCK]
S5 cells [1]
  Cell death: + (key: + = 80 ± 5% cell death; − = no cell death)
  Effect on Cry1Ab-induced toxicity and cell death: had no effect

## O=C(Nc1cccc(C(=O)Nc2ccc(S(=O)(=O)O)c3cc(S(=O)(=O)O)cc(S(=O)(=O)O)c23)c1)Nc1cccc(C(=O)Nc2ccc(S(=O)(=O)O)c3cc(S(=O)(=O)O)cc(S(=O)(=O)O)c23)c1 [NF023]
S5 cells [1]
  Effect on Cry1Ab toxicity: did not have any effect

## OC[C@H]1O[C@@](CO)(O[C@H]2O[C@H](CO)[C@@H](O)[C@H](O)[C@H]2O)[C@@H](O)[C@@H]1O [Sucrose, sucrose]
S5 cells [2]
  Effect of osmotic protectant on blebbing and swelling of toxin-exposed cells: partially prevented cell swelling

## O=C(O)CN(CCN(CC(=O)O)CC(=O)O)CC(=O)O [EDTA]
S5 cells [1]
  Cell death: − (key: + = 80 ± 5% cell death; − = no cell death)
  Effect on Cry1Ab-induced toxicity and cell death: prevented completely
S5 cells [3]
  Effect on Cry1Ab-induced cAMP levels: virtually precluded any increase in cAMP levels
  Effect on FSK induction of cAMP: precluded FSK induction of cAMP
S5 cells [4]
  Effect of chelator on toxin-induced death: completely abolished toxin-induced death

## CC(C)Cn1c(=O)n(C)c(=O)c2[nH]cnc21 [IBMX]
S5 cells [3]
  Level of cAMP: did not cause any elevation

## O=C(O)CN(CCOCCOCCN(CC(=O)O)CC(=O)O)CC(=O)O [EGTA]
S5 cells [1]
  Cell death: + (key: + = 80 ± 5% cell death; − = no cell death)
S5 cells [4]
  Effect of chelator on toxin-induced death: fully susceptible

## Cl.NCCc1ccc(S(=O)(=O)F)cc1 [Pefabloc]
S5 cells [1]
  Cell death: + (key: + = 80 ± 5% cell death; − = no cell death)
  Effect on Cry1Ab-induced toxicity and cell death: had no effect

## Nc1ncnc2c1nc(Sc1ccc(Cl)cc1)n2[C@@H]1O[C@@H]2COP(=O)(O)O[C@H]2[C@H]1O [pCPT-cAMP]
S5 cells [1]
  Cell death with Cry1Ab after pre-treatment: ~100%
  Cell death without Cry1Ab treatment: Neither FSK nor pCPT-cAMP alone was sufficient to bring about cell death

## C[C@H]1O[C@@H](n2cnc3c(N)ncnc32)C[C@@H]1OP(=O)(O)OP(=O)(O)O [ddADP, 2′,5′-dideoxy-3′-ADP]
S5 cells [1]
  Reduction of number of cells undergoing cell death: 50%

## Cry1Ab toxin
H5 cells [5]
  cAMP levels: did not change
H5 cells [6]
  Effect of toxin on cells: not affected
S5 cells [2]; S5 cells
  Time to cell swelling and lysis: ≤ 40 min
  Time to membrane blebbing after toxin exposure: ≤ 20 min
S5 cells [3]
  cAMP production: increased in a time-dependent manner
S5 cells [7]
  Internalization of toxin: not internalized
S5 cells [8]
  Externalization of phosphatidylserine or DNA fragmentation: no externalization of phosphatidylserine or DNA fragmentation was observed

## COC(=O)Nc1nc2ccc(C(=O)c3cccs3)cc2[nH]1 [Nocodazole]
S5 cells [1]; S5 cells treated with inhibitor, switched to inhibitor-free buffer before Cry1Ab toxin treatment, percent of dead cells by Trypan blue staining
  Cell death: + (+ = 80 ± 5% cell death)

## OC[C@H]1O[C@H](OC[C@H]2O[C@H](O[C@]3(CO)O[C@H](CO)[C@@H](O)[C@@H]3O)[C@H](O)[C@@H](O)[C@@H]2O)[C@H](O)[C@@H](O)[C@H]1O [raffinose]
S5 cells [2]
  Effect of osmotic protectant on blebbing and swelling of toxin-exposed cells: arrested in the blebbing stage and did not swell
S5 cells [4]; raffinose-treated cells
  Fate of protectant-treated S5 cells after Cry1Ab exposure: eventually died

## C=C1[C@@H](C)[C@H]2[C@H](Cc3ccccc3)NC(=O)[C@]23[C@H](OC(C)=O)/C=C/[C@@](C)(O)C(=O)[C@@H](C)C/C=C/[C@H]3[C@@H]1O [Cytochalasin D]
S5 cells [1]
  Cell death: + (key: + = 80 ± 5% cell death; − = no cell death)

## COC(=O)C[C@H](NC(=O)[C@H](C)NC(=O)[C@@H](NC(=O)OCc1ccccc1)C(C)C)C(=O)CF [Z-VAD-fmk] (Cbz-Val-Ala-Asp(OMe)-CH2F)
S5 cells [1]
  Cell death: + (key: + = 80 ± 5% cell death; − = no cell death)
  Effect on Cry1Ab-induced toxicity and cell death: did not suppress
